Each structure is given as a SMILES string. “Also recorded” adds a separate entry of the source. Read-outs that look alike come from different tables or passages of the source.

One assay has as its system BuChE. To be noted: cited from earlier work.
The subject of assay [1] is AChE. The conditions noted are these: cited from earlier work.
Assay [2] addresses AChE (Electrophorus electricus, UniProt O42275). To be noted: Lineweaver-Burk plot. How it is done: The plots were assessed by a weighted least-squares analysis that assumed the variance of velocity (v) to be a constant percentage of v for the entire data set.

Sequence of AChE (Electrophorus electricus, UniProt O42275) (O42275 24-633): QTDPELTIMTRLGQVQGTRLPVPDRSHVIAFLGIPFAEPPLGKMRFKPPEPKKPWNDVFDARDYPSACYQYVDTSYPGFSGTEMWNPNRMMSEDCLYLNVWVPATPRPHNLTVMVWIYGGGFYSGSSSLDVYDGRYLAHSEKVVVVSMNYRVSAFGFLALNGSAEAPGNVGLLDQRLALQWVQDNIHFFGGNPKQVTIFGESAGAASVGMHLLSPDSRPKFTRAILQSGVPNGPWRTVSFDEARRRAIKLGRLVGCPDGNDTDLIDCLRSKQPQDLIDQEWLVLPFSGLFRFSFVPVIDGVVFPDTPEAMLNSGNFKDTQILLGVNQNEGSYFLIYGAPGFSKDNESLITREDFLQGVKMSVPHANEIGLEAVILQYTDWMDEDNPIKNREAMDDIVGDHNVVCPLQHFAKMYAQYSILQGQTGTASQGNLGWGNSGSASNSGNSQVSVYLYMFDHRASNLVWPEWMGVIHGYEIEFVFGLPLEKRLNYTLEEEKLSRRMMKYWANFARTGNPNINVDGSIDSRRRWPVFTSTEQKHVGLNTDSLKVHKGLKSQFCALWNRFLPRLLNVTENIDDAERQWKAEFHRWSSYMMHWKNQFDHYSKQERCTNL

As a reminder, the IC50 is the concentration that inhibits the measured activity by half. Take `COc1cc2c(cc1OC)C(=O)C(CC1CCN(Cc3ccccc3)CC1)C2` (centres unmarked) [Donepezil]: the IC50 with BuChE is […].
With `COc1cccc2cc(-c3csc(NC(=S)Nc4ccc(Cl)cc4)n3)c(=O)oc12` [PBI-2], in the assay on AChE [1] (authors' previous work), the IC50 was 4.58 µM.
On to `CCN(CC)CC(=O)Nc1nc(-c2cc3ccccc3oc2=O)cs1` [Compound 6c, 2-(Diethylamino)-N-(4-(2-oxo-2H-chromen-3-yl)thiazol-2-yl)acetamide], for which the “type of AChE inhibition” value at AChE [2] was “mixed-type inhibitor; also recorded: mixed-type inhibition”.
Turning to `CCN(C)C(=O)Oc1cccc([C@H](C)N(C)C)c1` [Rivastigmine], the Selectivity index in the assay on AChE [1] (IC50 (BuChE)/IC50 (AChE)) was […]. For the same compound, the IC50 in the assay with AChE [1] is […]; with BuChE, […].
Take `O=C(Nc1nc(-c2cc3cc(Br)ccc3o2)cs1)Nc1ccccc1F` [PBI-1]: the IC50 in the assay with AChE [1] (authors' previous work) is 3.85 µM.
For `Nc1c2c(nc3ccccc13)CCCC2` [Tacrine], the IC50 in the assay with BuChE is […].
